# According to patent US10294202B2, “Pyrrolidinones as herbicides” (FMC Corporation, priority 2013, dated 2019):
# What was measured:
# monochoria = experiment: Test F flood (paddy) test; format: in vivo, Monochoria vaginalis; conditions: 21 d, scale 0-100
# Text: (§1) Three plastic pots (ca. 16-cm diameter) per rate were partially filled with sterilized Tama silt loam soil comprising a 35:50:15 ratio of sand, silt and clay and 2.6% organic matter. Separate plantings for each of the three pots were as follows. Seeds from the U.S. of monochoria (Monochoria vaginalis), sedge, umbrella (small-flower umbrella sedge, Cyperus difformis), bulrush, […] bulrush, Scirpus juncoides), and […] (purple […] coccinea), were planted into one 16-cm pot for each rate. Seeds from the U.S. of flatsedge, rice (rice flatsedge, Cyperus iria), sprangletop, Brdd. (bearded sprangletop, Leptochloa fascicularis), one stand of 9 or 10 water seeded rice seedlings (Rice, W.S. Jap, Oryza sativa cv. 'Japonica-[…]' or Rice, W.S. Ind, 'Indica'), and two stands of 3 or 4 seedlings of rice, transplanted (transplanted rice, Oryza sativa cv. 'Japonica-[…]') were planted into one 16-cm pot for each rate. Seeds from the U.S. of barnyardgrass (Echinochloa crus-galli), […] (common […], Alisma plantago-aquatica), and watergrass, late (late watergrass, Echinochloa oryzicola) were planted into one 16-cm pot for each rate. Plantings were sequential so that crop and weed species were at the 2.0 to 2.5-leaf stage at time of treatment. Potted plants were grown in a greenhouse with day/night temperature settings of 30/27° C., and supplemental balanced lighting was provided to maintain a 16-h photoperiod. Test pots were maintained in the greenhouse until test completion. At time of treatment, test pots were flooded to 3 cm above the soil surface, treated by application of test compounds directly to the paddy water, and then maintained at that water depth for the duration of the test. Effects of treatments on rice and weeds were visually evaluated by comparison to untreated controls after 21 d. Plant response ratings, summarized in Table F, are based on a scale of 0 to 100 where 0 is no effect and 100 is complete control. A dash (-) response means no test result.
# sedge, umbrella = experiment: Test F flood (paddy) test; format: in vivo, Cyperus difformis; conditions: 21 d, scale 0-100
# Text: as §1
# flatsedge, rice = experiment: Test F flood (paddy) test; format: in vivo, Cyperus iria; conditions: 21 d, scale 0-100
# Text: as §1
# watergrass, late = experiment: Test F flood (paddy) test; format: in vivo, Echinochloa oryzicola; conditions: 21 d, scale 0-100
# Text: as §1
# waterhemp = experiment: Test E preemergence herbicide test; format: in vivo, Amaranthus rudis; parameters: key: 0 = no effect, 100 = complete control
# Text: (§2) Seeds of plant species selected from corn (Zea mays), soybean (Glycine max), velvetleaf (Abutilon theophrasti), lambsquarters (Chenopodium album), wild poinsettia (Euphorbia heterophylla), pigweed, palmer (palmer pigweed, Amaranthus palmeri), waterhemp (common waterhemp, Amaranthus rudis), surinam grass (Brachiaria decumbens), crabgrass, large (large crabgrass, Digitaria sanguinalis), crabgrass, Brazil (Brazilian crabgrass, Digitaria horizontalis), panicum, fall (fall panicum, Panicum dichotomiflorum), foxtail, giant (giant foxtail, Setaria faberii), foxtail, green (green foxtail, Setaria viridis), goosegrass (Eleusine indica), johnsongrass (Sorghum halepense), ragweed (common ragweed, Ambrosia elatior), barnyardgrass (Echinochloa crus-galli), sandbur (southern sandbur, Cenchrus echinatus), arrowleaf […] rhombifolia), ryegrass, Italian (Italian ryegrass, Lolium multiflorum), dayflower, VA (Virginia dayflower, Commelina virginica), field bindweed (Convolvulus arvensis), morningglory (Ipomoea coccinea), nightshade (eastern black nightshade, Solanum ptycanthum), kochia (Kochia scoparia), nutsedge, yellow (yellow nutsedge, Cyperus esculentus), cocklebur (common cocklebur, Xanthium strumarium), smartweed (ladysthumb smartweed, Polygonum Persicaria) and beggarticks (hairy beggarticks, Bidens pilosa), were planted into a silt loam soil and treated preemergence with test chemicals formulated in a non-phytotoxic solvent mixture which included a surfactant. Treated plants and controls were maintained in a greenhouse for 21 days, after which time all species were compared to controls and visually evaluated. Plant response ratings, summarized in Table E, are based on a scale of 0 to 100 where 0 is no effect and 100 is complete control. A dash (-) response means no test result.
# panicum, fall = experiment: Test E preemergence herbicide test; format: in vivo, Panicum dichotomiflorum; parameters: key: 0 = no effect, 100 = complete control
# Text: as §2
# johnsongrass = experiment: Test E preemergence herbicide test; format: in vivo, Sorghum halepense; parameters: key: 0 = no effect, 100 = complete control
# Text: as §2
# cocklebur = experiment: Test E preemergence herbicide test; format: in vivo, Xanthium strumarium; parameters: key: 0 = no effect, 100 = complete control
# Text: as §2
# barley (winter barley) = experiment: Test C postemergence herbicide test; format: in vivo, Hordeum vulgare
# Text: (§3) At the same time, plants selected from these crop and weed species and also barley (winter barley, Hordeum vulgare), […]), chickweed (common chickweed, Stellaria media), deadnettle (henbit deadnettle, Lamium amplexicaule), and canarygrass (littleseed canarygrass, Phalaris minor) were planted in pots containing Redi-Earth® planting medium (Scotts Company, 14111 Scottslawn Road, Marysville, Ohio 43041) comprising spaghnum peat moss, vermiculite, wetting agent and starter nutrients and treated with postemergence applications of test chemicals formulated in the same manner. Plants ranged in height from 2 to 18 cm (1- to 4-leaf stage) for postemergence treatments. Treated plants and controls were maintained in a greenhouse for 13 to 15 days, after which time all species were compared to controls and visually evaluated. Plant response ratings, summarized in Table C, are based on a scale of 0 to 100 where 0 is no effect and 100 is complete control. A dash (-) response means no test result.
# windgrass = experiment: Test C postemergence herbicide test; format: in vivo, Apera spica-venti
# Text: as §3
# canarygrass = experiment: Test C postemergence herbicide test; format: in vivo, Phalaris minor
# Text: as §3
# [1] = 31 g ai/ha, scale 0 (no effect) to 100 (complete control)
# [2] = 62 g ai/ha, scale 0 to 100 (0 no effect, 100 complete control)
# [3] = 125 g ai/ha, scale 0 to 100 (0 no effect, 100 complete control)
# [4] = 250 g ai/ha, scale 0 to 100 (0 no effect, 100 complete control)
smiles,measurement,setting,value
O=C1NCC(c2cccc(C(F)(F)F)c2)C1C(=O)Nc1ccccc1F (racemic) [Compound 3],"Plant response rating, Monochoria",monochoria; 250 g ai/ha,90
same,"Plant response rating, Monochoria",monochoria; 500 g ai/ha,100
same,"Plant response rating, Sedge, Umbrella","sedge, umbrella; 250 g ai/ha",0
same,"Plant response rating, Sedge, Umbrella","sedge, umbrella; 500 g ai/ha",0
same,"Plant response rating, Flatsedge, Rice","flatsedge, rice; 250 g ai/ha",0
same,"Plant response rating, Flatsedge, Rice","flatsedge, rice; 500 g ai/ha",20
same,"Plant response rating, Watergrass, Late","watergrass, late; 250 g ai/ha",80
same,"Plant response rating, Watergrass, Late","watergrass, late; 500 g ai/ha",85
O=C1NCC(c2ccc(F)cc2)C1C(=O)Nc1ccccc1F (racemic) [Compound 16],"Plant response rating, Waterhemp",waterhemp; 16 g ai/ha,0
same,"Plant response rating, Waterhemp",waterhemp; 31 g ai/ha,0
same,"Plant response rating, Waterhemp",waterhemp; 62 g ai/ha,0
same,"Plant response rating, Waterhemp",waterhemp; 125 g ai/ha,0
same,"Plant response rating, Waterhemp",waterhemp; 250 g ai/ha,0
same,"Plant response rating, Panicum, Fall","panicum, fall; 16 g ai/ha",0
same,"Plant response rating, Panicum, Fall","panicum, fall; 31 g ai/ha",0
same,"Plant response rating, Panicum, Fall","panicum, fall; 62 g ai/ha",0
same,"Plant response rating, Panicum, Fall","panicum, fall; 125 g ai/ha",0
same,"Plant response rating, Johnsongrass",johnsongrass; 16 g ai/ha,0
same,"Plant response rating, Johnsongrass",johnsongrass; 31 g ai/ha,0
same,"Plant response rating, Johnsongrass",johnsongrass; 62 g ai/ha,0
same,"Plant response rating, Johnsongrass",johnsongrass; 125 g ai/ha,0
same,"Plant response rating, Johnsongrass",johnsongrass; 250 g ai/ha,0
same,"Plant response rating, Cocklebur",cocklebur; 16 g ai/ha,0
same,"Plant response rating, Cocklebur",cocklebur; 31 g ai/ha,0
same,"Plant response rating, Cocklebur",cocklebur; 62 g ai/ha,0
same,"Plant response rating, Cocklebur",cocklebur; 125 g ai/ha,0
same,"Plant response rating, Cocklebur",cocklebur; 250 g ai/ha,0
O=C1NCC(c2cc(F)c(F)c(F)c2)C1C(=O)Nc1ccccc1F (racemic) [Compound 34],"Plant response rating, Barley",barley (winter barley); [1],0
same,"Plant response rating, Barley",barley (winter barley); [2],0
same,"Plant response rating, Barley",barley (winter barley); [3],0
same,"Plant response rating, Barley",barley (winter barley); [4],0
same,"Plant response rating, Windgrass",windgrass; [1],0
same,"Plant response rating, Windgrass",windgrass; [2],0
same,"Plant response rating, Windgrass",windgrass; [3],0
same,"Plant response rating, Windgrass",windgrass; [4],5
same,"Plant response rating, Canarygrass",canarygrass; [1],0
same,"Plant response rating, Canarygrass",canarygrass; [2],0
same,"Plant response rating, Canarygrass",canarygrass; [3],0
same,"Plant response rating, Canarygrass",canarygrass; [4],0
O=C1NCC(c2ccccc2)C1C(=O)Nc1ccccc1F (racemic) [Compound 81],"Plant response rating, Barley",barley (winter barley); [1],0
same,"Plant response rating, Barley",barley (winter barley); [2],0
same,"Plant response rating, Barley",barley (winter barley); [3],0
same,"Plant response rating, Barley",barley (winter barley); [4],0
same,"Plant response rating, Windgrass",windgrass; [1],0
same,"Plant response rating, Windgrass",windgrass; [2],0
same,"Plant response rating, Windgrass",windgrass; [3],20
same,"Plant response rating, Windgrass",windgrass; [4],20
same,"Plant response rating, Canarygrass",canarygrass; [1],0
same,"Plant response rating, Canarygrass",canarygrass; [2],0
same,"Plant response rating, Canarygrass",canarygrass; [3],0
same,"Plant response rating, Canarygrass",canarygrass; [4],0
